Reference: publication PMC4032265 (PLoS ONE, 2014)
Where two headings read alike, the source gives them in different places.

How the values were obtained:
α2C adrenergic receptor = target: T1, α2C adrenergic receptor (Homo sapiens, UniProt P18825); assay: PDSP radioligand binding, α2C; conditions: for Ki: full concentration-response curves, n = 3-6 unless noted; for inhibition at 10 µM: read-out: % inhibition at 10 µM
T1 sequence (P18825 1-462): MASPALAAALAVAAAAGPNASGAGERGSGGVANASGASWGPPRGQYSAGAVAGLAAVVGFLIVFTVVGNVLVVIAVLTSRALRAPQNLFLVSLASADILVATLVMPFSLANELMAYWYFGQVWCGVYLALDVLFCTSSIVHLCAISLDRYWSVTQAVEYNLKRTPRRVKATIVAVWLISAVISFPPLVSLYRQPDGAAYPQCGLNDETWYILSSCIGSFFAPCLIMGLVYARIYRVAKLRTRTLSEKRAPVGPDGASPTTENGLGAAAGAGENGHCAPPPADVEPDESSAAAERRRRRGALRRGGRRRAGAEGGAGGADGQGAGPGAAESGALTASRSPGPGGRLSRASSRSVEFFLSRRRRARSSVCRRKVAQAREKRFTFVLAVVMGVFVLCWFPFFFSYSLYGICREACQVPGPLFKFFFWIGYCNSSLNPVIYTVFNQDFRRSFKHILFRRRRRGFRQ

[1] = target: 5HT2B serotonergic receptor (Homo sapiens, UniProt P41595); assay: PDSP radioligand binding, 5HT2B; conditions: for Ki: full concentration-response curves, n = 3-6 unless noted; for inhibition at 10 µM: read-out: % inhibition at 10 µM
5HT2B serotonergic receptor, sequence (P41595 whole entry): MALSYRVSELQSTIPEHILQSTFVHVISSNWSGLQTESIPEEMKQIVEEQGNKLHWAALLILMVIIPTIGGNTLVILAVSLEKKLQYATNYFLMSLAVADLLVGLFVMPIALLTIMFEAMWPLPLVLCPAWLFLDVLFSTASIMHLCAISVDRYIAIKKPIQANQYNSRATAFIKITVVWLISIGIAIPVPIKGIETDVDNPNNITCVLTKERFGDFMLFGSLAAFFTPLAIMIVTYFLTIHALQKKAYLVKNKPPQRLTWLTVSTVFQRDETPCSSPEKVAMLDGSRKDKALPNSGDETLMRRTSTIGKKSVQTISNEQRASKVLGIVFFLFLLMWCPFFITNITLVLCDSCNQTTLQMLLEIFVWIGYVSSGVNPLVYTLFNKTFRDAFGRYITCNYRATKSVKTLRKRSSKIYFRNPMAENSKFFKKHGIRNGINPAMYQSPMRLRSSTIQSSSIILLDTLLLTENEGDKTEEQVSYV

[2] = target: 5HT5A serotonergic receptor (Homo sapiens, UniProt P47898); assay: PDSP radioligand binding, 5HT5A; conditions: for inhibition at 10 µM: read-out: % inhibition at 10 µM
5HT5A serotonergic receptor, sequence (P47898 whole entry): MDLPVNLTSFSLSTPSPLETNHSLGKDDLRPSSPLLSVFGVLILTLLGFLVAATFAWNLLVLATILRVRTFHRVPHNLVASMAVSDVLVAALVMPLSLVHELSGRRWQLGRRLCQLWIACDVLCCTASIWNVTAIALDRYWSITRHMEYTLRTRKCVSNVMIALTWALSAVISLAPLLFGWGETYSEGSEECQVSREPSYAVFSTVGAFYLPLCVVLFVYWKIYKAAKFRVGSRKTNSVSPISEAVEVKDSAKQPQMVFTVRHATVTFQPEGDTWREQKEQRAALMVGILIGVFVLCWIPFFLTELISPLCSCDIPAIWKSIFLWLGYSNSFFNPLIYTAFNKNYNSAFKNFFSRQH

5HT3 ion channels = target: T2, 5HT3 ion channels (Homo sapiens, UniProt P46098); assay: PDSP radioligand binding, 5HT3 ion channel; conditions: read-out: % inhibition at 10 µM
T2 sequence (P46098 24-478): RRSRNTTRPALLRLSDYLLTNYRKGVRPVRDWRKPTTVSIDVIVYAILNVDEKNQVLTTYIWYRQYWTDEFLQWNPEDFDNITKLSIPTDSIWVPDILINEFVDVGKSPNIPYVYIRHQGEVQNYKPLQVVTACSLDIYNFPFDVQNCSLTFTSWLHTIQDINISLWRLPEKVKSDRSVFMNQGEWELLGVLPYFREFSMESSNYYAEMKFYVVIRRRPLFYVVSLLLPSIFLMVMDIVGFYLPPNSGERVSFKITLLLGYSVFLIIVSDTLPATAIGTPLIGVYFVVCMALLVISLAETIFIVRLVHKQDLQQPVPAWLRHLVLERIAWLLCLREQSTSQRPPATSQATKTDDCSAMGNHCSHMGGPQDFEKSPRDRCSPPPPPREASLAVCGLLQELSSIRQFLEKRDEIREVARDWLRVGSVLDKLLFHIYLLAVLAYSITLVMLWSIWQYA

hERG potassium channel = hERG potassium channel (Homo sapiens, UniProt Q12809); assay: PDSP hERG functional assay; format: cell-based; conditions: for inhibition at 10 µM: human, single point 10 µM; for Ki: not binding
hERG potassium channel, sequence (Q12809 whole entry): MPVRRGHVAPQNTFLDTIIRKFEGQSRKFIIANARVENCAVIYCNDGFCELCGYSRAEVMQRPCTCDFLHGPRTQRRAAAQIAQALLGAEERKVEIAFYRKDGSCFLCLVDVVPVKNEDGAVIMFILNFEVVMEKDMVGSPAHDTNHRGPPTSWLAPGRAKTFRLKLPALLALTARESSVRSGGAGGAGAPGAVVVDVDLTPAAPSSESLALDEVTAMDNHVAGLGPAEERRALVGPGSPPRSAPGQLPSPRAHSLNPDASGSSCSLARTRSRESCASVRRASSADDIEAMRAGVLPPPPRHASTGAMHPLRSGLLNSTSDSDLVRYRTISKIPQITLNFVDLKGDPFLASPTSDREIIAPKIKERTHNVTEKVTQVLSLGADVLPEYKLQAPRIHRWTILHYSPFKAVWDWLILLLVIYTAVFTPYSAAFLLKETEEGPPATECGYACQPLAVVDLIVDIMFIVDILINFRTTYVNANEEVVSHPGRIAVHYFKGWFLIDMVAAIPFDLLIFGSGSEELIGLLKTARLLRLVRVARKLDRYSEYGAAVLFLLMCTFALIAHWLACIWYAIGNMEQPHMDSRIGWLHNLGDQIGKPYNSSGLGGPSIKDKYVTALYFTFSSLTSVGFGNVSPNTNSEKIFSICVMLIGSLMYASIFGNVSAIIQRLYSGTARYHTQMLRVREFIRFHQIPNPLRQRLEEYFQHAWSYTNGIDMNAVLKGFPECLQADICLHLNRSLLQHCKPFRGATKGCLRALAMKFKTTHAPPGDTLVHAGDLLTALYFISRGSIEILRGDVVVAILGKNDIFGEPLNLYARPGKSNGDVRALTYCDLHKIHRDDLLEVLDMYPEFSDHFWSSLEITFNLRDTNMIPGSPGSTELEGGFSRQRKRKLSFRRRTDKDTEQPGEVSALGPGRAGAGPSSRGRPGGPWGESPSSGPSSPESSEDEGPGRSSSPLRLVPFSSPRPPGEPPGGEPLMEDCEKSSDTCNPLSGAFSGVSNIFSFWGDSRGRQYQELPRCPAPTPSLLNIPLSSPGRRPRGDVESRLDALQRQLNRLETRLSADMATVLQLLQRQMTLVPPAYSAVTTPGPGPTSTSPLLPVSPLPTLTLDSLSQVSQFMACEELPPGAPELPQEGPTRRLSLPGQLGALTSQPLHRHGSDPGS

σ1 receptor = σ1 receptor (Cavia porcellus, UniProt Q60492); assay: PDSP radioligand binding, σ1; conditions: read-out: % inhibition at 10 µM
σ1 receptor, sequence (Q60492 whole entry): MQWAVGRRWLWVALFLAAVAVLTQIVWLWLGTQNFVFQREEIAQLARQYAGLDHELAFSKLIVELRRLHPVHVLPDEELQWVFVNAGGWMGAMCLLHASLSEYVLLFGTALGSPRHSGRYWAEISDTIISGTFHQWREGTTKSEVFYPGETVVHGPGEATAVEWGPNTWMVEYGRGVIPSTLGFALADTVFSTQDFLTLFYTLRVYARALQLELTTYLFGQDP

[3] = target: peripheral benzodiazepine receptor (PBR) (Rattus norvegicus, UniProt P16257); assay: PDSP radioligand binding, PBR; conditions: for inhibition at 10 µM: read-out: % inhibition at 10 µM; for Ki: full curves, n = 2
[4] = target: T3, M2 muscarinic acetylcholine receptor (Homo sapiens, UniProt P08172); assay: PDSP radioligand binding, M2; conditions: read-out: % inhibition at 10 µM
T3 sequence (P08172 1-466): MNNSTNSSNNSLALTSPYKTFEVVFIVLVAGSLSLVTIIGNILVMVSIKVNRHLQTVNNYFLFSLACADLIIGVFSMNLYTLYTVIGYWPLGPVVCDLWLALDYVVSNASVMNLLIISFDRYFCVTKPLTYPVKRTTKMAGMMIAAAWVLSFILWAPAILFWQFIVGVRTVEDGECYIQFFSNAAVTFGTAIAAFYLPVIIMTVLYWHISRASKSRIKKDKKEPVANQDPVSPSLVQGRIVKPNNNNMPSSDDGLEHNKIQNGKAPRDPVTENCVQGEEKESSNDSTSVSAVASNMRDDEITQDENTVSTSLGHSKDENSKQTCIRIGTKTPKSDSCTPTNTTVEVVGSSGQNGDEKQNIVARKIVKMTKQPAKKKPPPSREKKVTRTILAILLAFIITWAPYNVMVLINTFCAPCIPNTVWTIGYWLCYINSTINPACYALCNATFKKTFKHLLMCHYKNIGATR

[5] = target: T4, M5 muscarinic acetylcholine receptor (Homo sapiens, UniProt P08912); assay: PDSP radioligand binding, M5; conditions: read-out: % inhibition at 10 µM
T4 sequence (P08912 1-532): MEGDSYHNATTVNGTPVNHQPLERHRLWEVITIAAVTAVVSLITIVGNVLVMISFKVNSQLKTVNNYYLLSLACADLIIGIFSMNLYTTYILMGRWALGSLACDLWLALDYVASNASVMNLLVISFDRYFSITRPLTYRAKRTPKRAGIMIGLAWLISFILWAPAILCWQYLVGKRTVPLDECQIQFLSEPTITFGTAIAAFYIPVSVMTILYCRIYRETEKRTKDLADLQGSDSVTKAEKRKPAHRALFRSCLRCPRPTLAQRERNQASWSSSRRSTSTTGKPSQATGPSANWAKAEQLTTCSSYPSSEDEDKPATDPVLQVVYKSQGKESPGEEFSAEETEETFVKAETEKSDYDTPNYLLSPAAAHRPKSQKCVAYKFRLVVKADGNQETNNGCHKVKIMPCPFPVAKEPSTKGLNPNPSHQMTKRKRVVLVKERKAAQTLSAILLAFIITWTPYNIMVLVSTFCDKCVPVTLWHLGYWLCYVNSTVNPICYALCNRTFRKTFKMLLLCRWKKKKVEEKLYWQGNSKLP

[6] = target: H3 histaminergic receptor (Homo sapiens, UniProt Q9Y5N1); assay: PDSP radioligand binding, H3; conditions: read-out: % inhibition at 10 µM
H3 histaminergic receptor, sequence (Q9Y5N1 whole entry): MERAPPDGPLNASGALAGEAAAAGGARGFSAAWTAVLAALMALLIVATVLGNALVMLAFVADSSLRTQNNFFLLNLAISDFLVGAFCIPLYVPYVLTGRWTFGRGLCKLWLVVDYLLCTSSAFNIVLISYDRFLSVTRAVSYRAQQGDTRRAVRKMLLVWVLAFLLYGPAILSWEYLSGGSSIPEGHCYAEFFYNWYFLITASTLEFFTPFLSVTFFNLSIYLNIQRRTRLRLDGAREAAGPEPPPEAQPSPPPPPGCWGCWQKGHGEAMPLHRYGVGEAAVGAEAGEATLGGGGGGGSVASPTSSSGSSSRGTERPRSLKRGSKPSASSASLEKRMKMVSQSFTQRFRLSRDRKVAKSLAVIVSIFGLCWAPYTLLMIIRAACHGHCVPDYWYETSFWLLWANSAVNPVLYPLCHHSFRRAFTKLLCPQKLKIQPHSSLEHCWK

D2 dopaminergic receptor = D2 dopaminergic receptor (Homo sapiens, UniProt P14416); assay: PDSP radioligand binding, D2; conditions: read-out: % inhibition at 10 µM
D2 dopaminergic receptor, sequence (P14416 whole entry): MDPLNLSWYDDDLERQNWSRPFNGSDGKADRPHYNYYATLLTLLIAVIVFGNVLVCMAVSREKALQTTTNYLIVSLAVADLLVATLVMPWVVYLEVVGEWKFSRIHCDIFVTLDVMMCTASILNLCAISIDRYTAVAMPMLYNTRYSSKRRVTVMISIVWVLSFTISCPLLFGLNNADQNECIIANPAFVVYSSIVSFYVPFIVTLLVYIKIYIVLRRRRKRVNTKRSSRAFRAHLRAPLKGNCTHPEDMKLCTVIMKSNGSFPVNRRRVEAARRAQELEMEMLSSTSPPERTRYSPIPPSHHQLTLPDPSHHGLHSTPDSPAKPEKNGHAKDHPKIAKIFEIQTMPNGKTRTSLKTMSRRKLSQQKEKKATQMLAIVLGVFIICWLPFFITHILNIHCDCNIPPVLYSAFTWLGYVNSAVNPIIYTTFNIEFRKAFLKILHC

D3 dopaminergic receptor = D3 dopaminergic receptor (Homo sapiens, UniProt P35462); assay: PDSP radioligand binding, D3; conditions: read-out: % inhibition at 10 µM
D3 dopaminergic receptor, sequence (P35462 whole entry): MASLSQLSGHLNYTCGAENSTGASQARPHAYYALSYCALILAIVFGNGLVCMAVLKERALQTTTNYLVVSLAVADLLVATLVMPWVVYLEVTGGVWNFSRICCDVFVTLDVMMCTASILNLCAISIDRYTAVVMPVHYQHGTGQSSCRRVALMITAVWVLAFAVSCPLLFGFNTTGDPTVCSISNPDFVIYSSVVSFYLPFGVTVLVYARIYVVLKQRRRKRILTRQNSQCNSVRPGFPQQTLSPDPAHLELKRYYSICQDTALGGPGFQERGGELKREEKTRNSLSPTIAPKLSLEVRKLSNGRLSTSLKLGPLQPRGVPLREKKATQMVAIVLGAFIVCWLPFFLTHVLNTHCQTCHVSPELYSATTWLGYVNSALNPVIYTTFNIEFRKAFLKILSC

[7] = target: 5HT1B serotonergic receptor (Homo sapiens, UniProt P28222); assay: PDSP radioligand binding, 5HT1B; conditions: read-out: % inhibition at 10 µM
5HT1B serotonergic receptor, sequence (P28222 whole entry): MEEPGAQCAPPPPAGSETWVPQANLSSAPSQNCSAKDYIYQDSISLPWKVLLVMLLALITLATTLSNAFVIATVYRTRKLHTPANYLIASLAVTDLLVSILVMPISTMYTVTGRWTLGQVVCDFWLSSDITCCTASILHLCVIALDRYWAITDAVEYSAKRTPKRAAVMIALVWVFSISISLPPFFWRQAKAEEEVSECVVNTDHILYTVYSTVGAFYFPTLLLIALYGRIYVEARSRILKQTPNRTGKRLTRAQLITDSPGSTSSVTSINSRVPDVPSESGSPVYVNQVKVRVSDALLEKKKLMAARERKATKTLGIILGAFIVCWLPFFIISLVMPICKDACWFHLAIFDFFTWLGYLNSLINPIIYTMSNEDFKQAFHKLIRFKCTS

[8] = target: 5HT6 serotonergic receptor (Homo sapiens, UniProt P50406); assay: PDSP radioligand binding, 5HT6; conditions: read-out: % inhibition at 10 µM
5HT6 serotonergic receptor, sequence (P50406 whole entry): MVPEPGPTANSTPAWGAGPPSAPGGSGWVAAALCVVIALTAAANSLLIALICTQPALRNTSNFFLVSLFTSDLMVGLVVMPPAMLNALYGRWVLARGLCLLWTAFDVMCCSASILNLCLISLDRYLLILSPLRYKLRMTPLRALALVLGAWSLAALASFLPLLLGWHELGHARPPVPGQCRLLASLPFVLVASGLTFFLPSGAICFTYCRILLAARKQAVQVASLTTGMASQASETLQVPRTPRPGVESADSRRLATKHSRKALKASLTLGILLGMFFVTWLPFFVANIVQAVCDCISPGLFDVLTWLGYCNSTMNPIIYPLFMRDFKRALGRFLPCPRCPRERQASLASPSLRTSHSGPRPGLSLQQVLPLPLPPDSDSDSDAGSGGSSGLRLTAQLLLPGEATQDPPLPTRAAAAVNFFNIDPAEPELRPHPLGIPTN

κ opioid receptor = κ opioid receptor (Homo sapiens, UniProt P41145); assay: PDSP radioligand binding, κ opioid; conditions: read-out: % inhibition at 10 µM
κ opioid receptor, sequence (P41145 whole entry): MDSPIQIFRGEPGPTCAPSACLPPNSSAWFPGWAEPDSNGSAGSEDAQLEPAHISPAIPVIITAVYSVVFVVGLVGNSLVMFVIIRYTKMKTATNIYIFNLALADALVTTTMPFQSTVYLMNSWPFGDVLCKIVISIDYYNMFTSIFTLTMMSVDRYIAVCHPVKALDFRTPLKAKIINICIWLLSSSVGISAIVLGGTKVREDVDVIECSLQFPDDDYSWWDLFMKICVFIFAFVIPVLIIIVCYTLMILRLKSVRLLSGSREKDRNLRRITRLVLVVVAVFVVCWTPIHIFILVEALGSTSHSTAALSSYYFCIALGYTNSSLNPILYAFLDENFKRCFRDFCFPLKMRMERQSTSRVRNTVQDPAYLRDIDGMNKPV

GABAA receptor = assay: PDSP radioligand binding, GABAA; conditions: single concentration 10 µM

Compound	Ki (α2C adrenergic receptor) [nM]	Ki [1] [nM]	inhibition at 10 µM (hERG potassium channel) [%]	Ki (hERG potassium channel) [nM]	% inhibition at 10 µM (GABAA receptor) [%]	inhibition at 10 µM (α2C adrenergic receptor; single concentration 10 µM) [%]	inhibition at 10 µM ([1]; single concentration 10 µM) [%]	inhibition at 10 µM ([2]; single concentration 10 µM) [%]	inhibition at 10 µM (5HT3 ion channels; single concentration 10 µM) [%]	inhibition at 10 µM (σ1 receptor; single concentration 10 µM) [%]	Ki [3] [nM]	inhibition at 10 µM ([3]; single concentration 10 µM) [%]	inhibition at 10 µM ([4]; single concentration 10 µM) [%]	inhibition at 10 µM ([5]; single concentration 10 µM) [%]	inhibition at 10 µM ([6]; single concentration 10 µM) [%]	inhibition at 10 µM (D2 dopaminergic receptor; single concentration 10 µM) [%]	inhibition at 10 µM (D3 dopaminergic receptor; single concentration 10 µM) [%]	inhibition at 10 µM ([7]; single concentration 10 µM) [%]	inhibition at 10 µM ([8]; single concentration 10 µM) [%]	inhibition at 10 µM (κ opioid receptor; single concentration 10 µM) [%]	other results
CNC(=O)[C@@]12C[C@@H]1[C@@H](n1cnc3c(NCc4cccc(Cl)c4)nc(C#Cc4ccc(F)c(F)c4)nc31)[C@H](O)[C@@H]2O [Compound 1]	2040 ± 950	2580 ± 220	43 ± 1.9	12200	0	–	–	–	–	–	–	–	–	–	–	–	–	–	–	–	inhibition at 10 µM (α2C adrenergic receptor): 63%; inhibition at 10 µM [1]: 34%; inhibition at 10 µM [2]: 3%; inhibition at 10 µM (5HT3 ion channels): 3%; inhibition at 10 µM (σ1 receptor): 0%; inhibition at 10 µM [3]: 71%; inhibition at 10 µM [4]: 22%; inhibition at 10 µM [5]: 2%; inhibition at 10 µM [6]: 8%; inhibition at 10 µM (D2 dopaminergic receptor): 0%; inhibition at 10 µM (D3 dopaminergic receptor): 2%; inhibition at 10 µM [7]: 0%; inhibition at 10 µM [8]: 0%; inhibition at 10 µM (κ opioid receptor): 71%
CNC(=O)[C@@]12C[C@@H]1[C@@H](n1cnc3c(NCc4cccc(Cl)c4)nc(C#Cc4ccccc4Cl)nc31)[C@H](O)[C@@H]2O [Compound 3]	1810 ± 250	3650 ± 1050	10.3 ± 4.9	39200	0	57	55	29	50	33	344 ± 149	87	0	9	0	0	7	0	59	19	Ki [2]: 6300 nM
O[C@@H]1[C@H](O)[C@@H]2C[C@@H]2[C@H]1n1cnc2c(NCc3cccc(Cl)c3)nc(C#Cc3ccc(F)c(F)c3)nc21 [Compound 6]	5400 ± 1220	–	–	–	–	11	34	15	0	16	1700	63	7	3	0	9	0	13	0	29	–
CNC(=O)[C@@]12C[C@@H]1[C@@H](n1cnc3c(NCc4cccc(Cl)c4)nc(Cl)nc31)[C@H](O)[C@@H]2O [Compound 4]	–	75 ± 7	2	–	0	11	95	21	5	2	–	32	14	1	0	16	22	23	9	6	–
